From patent publication US7622447B2, “Use of glutathione synthesis stimulating compounds in reducing insulin resistance” (DiaMedica Inc., priority 2002, dated 2009)
Several values for one entry are separate records, joined by “and”; a condition that tells them apart may be missing. Equal values may be shown once. Entries after “also recorded” stand apart in the source; their conditions may differ.

Columns and labels:
HISS = HISS action after NOS blockade; assay type: in vivo
cats = conditions: cited from earlier work
Wistar rats = experiment: Rapid Insulin Sensitivity Test (RIST), euglycemic clamp, in saline and BSO (GSH-depleted) rats; assay type: in vivo, rat
Excerpt: The rapid insulin sensitivity test (RIST) was employed (Lautt et al., Can. J. Physiol. Pharmacol. 76:1080 (1998)) is employed to avoid the complexity of the reaction to hypoglycemia. The RIST involves use of a euglycemic clamp following the administration of insulin and quantitation of the response as the amount of glucose required to be infused over the test period in order to hold arterial blood glucose levels constant. […] It is highly reproducible with up to five consecutive responses being obtainable in cats and four in rats with blood glucose levels returning to control levels between each test. Insulin, glucagon, and catecholamine levels remain unchanged between tests.
(§1) Summary: GSH depletion was induced in 5 week old Wistar rats using buthionine sulfoximine (BS), 2 mmol/kg bw, i.p. for 20 days. Control rats were injected with an equal volume of saline. Insulin sensitivity was measured using a euglycemic clamp, the Rapid Insulin Sensitivity Test—RIST. In both the saline group (SG) and BSO group (BG) a control RIST followed by a RIST post-L-NAME (1 mg/kg i.p.v.), a NOS competitive antagonist, and a RIST post-SIN-1 (5 mg/kg i.p.v.), a NO donor, were performed. The liver was removed for further determined of hepatic GSH content using the GSH peroxidase-reductase assay. […] The control RIST, 248.0±15.8 mg glucose/kg for SG, was impaired in the BG (158.4±12.2 mg glucose/kg; p<0.01). After L-NAME the SG RIST was 129.0±1.9 mg glucose/kg and the BG RIST was 109.0±9.1 mg glucose/kg. […] HISS action, quantified by subtracting the post L-NAME RIST from the control RIST, was 114.0±15.8 mg glucose/kg for SG and only 49.3±8.6 mg glucose/kg for BG (p<0.01). HISS dependent insulin resistance appears to be related to impaired levels of GSH in the liver, leading to a compromised HISS secretion/release.
Male Wistar rats (8 weeks) were anaesthetized with sodium pentobaribtial (65 mg/kg). Body temperature was maintained at 37±0.5 °C. An arterial-venous loop (carotid artery and internal jugular vein) was employed. A catheter was inserted into the portal vein.
RIST (Rapid Insulin Sensitivity Test): Blood samples (25 μl) for arterial glucose analysis were taken from the arterial-venous loop. A stable glucose baseline was established. Insulin (50 mU/kg i.v.) was infused over 5 minutes. Arterial blood samples were taken every 2 minutes. Glucose was adjusted to maintain euglycemia. RIST index=mg glucose/kg infused during RIST.

hepatic GSH = experiment: Hepatic GSH content by GSH peroxidase-reductase assay; assay type: in vivo, rat
Procedure: as §1, with “Test-RIST.” for “Test—RIST.”, “post-[…]” for “post-L-NAME (1 mg/kg i.p.v.), a”, “secretion/release. […] CONTENT: […] Hepatic GSH content was decreased in 48.3±6.9% in BSO group. ***=p<0.001.” for “secretion/release.”

fasting-induced HDIR = experiment: Fasting-induced HISS-dependent insulin resistance (HDIR) model, overnight fast; assay type: in vivo
Excerpt: A model of low hepatic GSH and NO production is produced by overnight fasting.

hepatic glutathione = conditions: cited from earlier work

For Nitroprusside, the “HISS action after NOS blockade” value (HISS) was “not able to restore HISS action after NOS blockade”.

For `CN1CCN(CC(=O)N2c3ccccc3C(=O)Nc3cccnc32)CC1` [pirenzepine], the “dose producing a similar degree of insulin resistance” value (cats) is given as 10^−7 mmol/kg.

In the case of `CN1[C@@H]2CC[C@H]1C[C@@H](OC(=O)C(CO)c1ccccc1)C2` (some centres unmarked) [atropine], the hepatic glucose response (cats; arterial-venous glucose response to bolus insulin after atropine) is given as “not notably altered”.

In the case of `COC(=O)[C@@H](N)CCCNC(=N)N[N+](=O)[O-]` [L-NAME], the “RIST index post-L-NAME in BSO group” value (Wistar rats; BSO-treated rats, L-NAME 1 mg/kg intraportal) is reported as 109.0±9.1 mg glucose/kg and 109.8±9.1 mg glucose/kg and the “inhibition of RIST index by L-NAME” value (Wistar rats; control group, L-NAME 1 mg/kg i.p.v.) is reported as 52.3±5.8%.

For `CCCCS(=N)(=O)CCC(N)C(=O)O` (centres unmarked) [BSO, buthionine sulfoximine], the “control RIST index in BSO group” value (Wistar rats; BSO 2 mmol/kg bw i.p. for 20 days, before L-NAME) was 158.4±12.2 mg glucose/kg, the “decrease of HISS action” value (Wistar rats; BSO group compared to control group) was 64.4% and the “HISS-independent component of insulin action” value (Wistar rats; BSO group versus control group) was “not different”. The “HISS action (HISS-dependent component of insulin action)” value (Wistar rats; BSO group, control RIST minus post L-NAME RIST) was 49.3±8.6 mg glucose/kg and 49.3±8.56 mg glucose/kg, the “reduction in hepatic GSH content” value (hepatic GSH; BSO group compared to saline/control group) was 48.3±6.9% and the “hepatic GSH content” value (hepatic GSH; BSO group, BSO 2 mmol/kg bw i.p. for 20 days) was 2.96±0.4 μmol/g fresh liver.

For `N[C@@H](CCC(=O)N[C@@H](CS)C(=O)NCC(=O)O)C(=O)O` [GSH, glutathione], the “reversal of HDIR / reduction in insulin resistance by GSH alone” value (fasting-induced HDIR; GSH by itself) was “small but significant reduction in insulin resistance; also recorded: minor reversal of HDIR” and the “insulin sensitivity / reversal of HDIR by GSH together with NO donor” value (fasting-induced HDIR; GSH plus NO / NO donor) was “Improved insulin sensitivity; also recorded: only becomes therapeutically significant after the addition of the NO donor”.

In the case of `C[S+](CC[C@H](N)C(=O)O)C[C@H]1O[C@@H](n2cnc3c(N)ncnc32)[C@H](O)[C@@H]1O` (some centres unmarked) [SAMe, S-adenosylmethionine], the “time of peak glutathione levels” value (hepatic glutathione; after oral administration of SAMe) is given as 3 to 6 h and the “intrahepatic glutathione after SAMe administration” value (hepatic glutathione; in vivo) is given as “restored to near-normal levels”.

In the case of `COc1ccccc1CNCCCCCCNCCCCCCCCNCCCCCCNCc1ccccc1OC` [methoctramine], the “dose producing full / similar degree of insulin resistance” value (cats) is listed as 10^−6 μmol/kg.

For `[NH-]c1c[n+](N2CCOCC2)no1` [SIN-1, 3-morpholinosyndnonimine], the “restoration of RIST index / insulin action by SIN-1 in BSO group” value (Wistar rats; BSO-treated rats, SIN-1 5 mg/kg i.p.v. after L-NAME, 5 mg/kg) was “only restored insulin action in the SG; also recorded: did not reverse the RIST index to control values”, the “RIST index post-SIN-1” value (Wistar rats; saline/control group, SIN-1 5 mg/kg i.p.v. after L-NAME, 5 mg/kg) was 246.0±11.5 mg glucose/kg and 258.1±18.5 mg glucose/kg and the “reversal of fasting induced HDIR by SIN-1 alone” value (fasting-induced HDIR; SIN-1 2.5 to 10 mg/kg i.p.v., overnight fast) was “do not reverse fasting induced HDIR”. For the same molecule, the “HISS action after NOS blockade” value (HISS) was “reverses HISS inhibition after NOS blockade”.
